Measured values from publication PMC5884652, “New antimicrobial peptide kills drug-resistant pathogens without detectable resistance” (Oncotarget, 2018).
In brackets after ≈: the same amount, converted by molar mass. Like-named read-outs stand apart in the source and are kept apart here. Ends that are not written are not given here.

Legend:
P. aeruginosa 4007 = experiment: microbe, parasite or virus in culture; assay type: cell-based, Pseudomonas aeruginosa; conditions: pH (I or II) not given; 10 mM sodium phosphate buffer, 10% LB; 37° C, 24 h; mean of 3 experiments
From the text: (§1) The method for peptide synthesis has been described in detail previously. E. coli ATCC 25922 (LB media), P. aeruginosa ATCC 15692 (NB+0.5% NaCl media), Listeria monocytogenes ATCC 3710 (LB media), Staphylococcus epidermidis ATCC 12228 (LB media), and S. aureus ATCC 29213 (TSB media) were obtained from the American Type Culture Collection (Manassas, VA, USA). Bacillus subtilis KCTC 1998 (LB media), Salmonella typhimurium KCTC 1926 (NB media), and Proteus vulgaris KCTC 2433 (NB media) were obtained from the Korean Collection for Type Cultures (Jeollabuk-do, Korea). E. coli CCARM 1238 was received from the Culture Collection of Antibiotic Resistant Microbes at Seoul Women’s University, Korea. Drug-resistant P. aeruginosa 3543, 3904, 3547, and 4007 and S. aureus 3126, 0027, 5157, 1635, 4761, 5159, 3359, 2122, 1630, 1870, 3511, 5156, and 3518 were resistant strains isolated from patients with otitis media in a Chonnam National University’s hospital.
(§2) The antibacterial activities of AMPs (melittin, clavaspirin, and its analogs) and conventional antibiotic drugs (erythromycin, gentamicin, ampicillin, and piperacidin) were determined using microdilution assays. Bacterial cells were cultured at 37° C in appropriate culture media at pH 5.5 or pH 7.4 until collection during the mid-log phase and suspended in 10 mM sodium phosphate buffer (pH 5.5 or pH 7.4) supplemented with 10% culture medium. Thereafter, 2× serial dilutions of each peptide (0.25–128 μM) or antibiotic (0.25–256 μM) were added to sterile 96-well plates, and aliquots of cell suspension (5 × 10^5 colony forming units (cfu)/mL) were seeded into each well. The samples were then incubated at 37° C for 24 h. At the end of the incubation, the minimum inhibitory concentrations (MICs) of the peptides were determined using a VERSA Max microplate reader (Molecular Devices Co., Sunnyvale, CA, USA) at a wavelength of 600 nm. […] MIC values were calculated as the mean of 3 independent experiments conducted in triplicate.

P. aeruginosa 3543 = experiment: microbe, parasite or virus in culture; assay type: cell-based, Pseudomonas aeruginosa; conditions: pH (I or II) not given; 10 mM sodium phosphate buffer, 10% LB; 37° C, 24 h; mean of 3 experiments
From the text: as §1, §2

P. aeruginosa 3547 = experiment: microbe, parasite or virus in culture; assay type: cell-based, Pseudomonas aeruginosa; conditions: pH (I or II) not given; 10 mM sodium phosphate buffer, 10% LB; 37° C, 24 h; mean of 3 experiments
From the text: as §1, §2

P. aeruginosa 3904 = experiment: microbe, parasite or virus in culture; assay type: cell-based, Pseudomonas aeruginosa; conditions: pH (I or II) not given; 10 mM sodium phosphate buffer, 10% LB; 37° C, 24 h; mean of 3 experiments
From the text: as §1, §2

E. coli ATCC 25922 = assay type: cell-based, Escherichia coli; conditions: 10 mM sodium phosphate buffer, 10% LB, 37° C, 24 h, mean of 3 experiments
From the text: as §1, §2

P. aeruginosa ATCC 15692 = assay type: cell-based, Pseudomonas aeruginosa; conditions: 10 mM sodium phosphate buffer, 10% LB, 37° C, 24 h, mean of 3 experiments
From the text: as §1, with “E. coli ATCC 25922 (LB media), P. aeruginosa ATCC 15692 (NB+0.5% NaCl media), Listeria monocytogenes ATCC 3710 (LB media), Staphylococcus epidermidis ATCC 12228 (LB media), and S. aureus ATCC 29213 (TSB media) were obtained from the American Type Culture Collection (Manassas, VA, USA).” left out
as §2, with “Bacterial cells were cultured at 37° C in appropriate culture media at pH 5.5 or pH 7.4 until collection during the mid-log phase and suspended in 10 mM sodium phosphate buffer (pH 5.5 or pH 7.4) supplemented with 10% culture medium.” left out

[1] = tested on: Listeria monocytogenes ATCC 3710; assay type: cell-based; conditions: 10 mM sodium phosphate buffer, 10% LB, 37° C, 24 h, mean of 3 experiments
From the text: as §1, §2

[2] = tested on: Bacillus subtilis KCTC 1998; assay type: cell-based; conditions: 10 mM sodium phosphate buffer, 10% LB, 37° C, 24 h, mean of 3 experiments
From the text: as §1, §2

[3] = tested on: Staphylococcus epidermidis ATCC 12228; assay type: cell-based; conditions: 10 mM sodium phosphate buffer, 10% LB, 37° C, 24 h, mean of 3 experiments
From the text: as §1, §2

[4] = tested on: HaCaT (human keratinocyte) cells; experiment: Cytotoxicity, MTT assay; assay type: cell-based; conditions: DMEM containing 10% FBS and 1% PS, 24 h, 37° C
Protocol: To examine the cytotoxic effects of the peptides, HaCaT (human keratinocyte) cells were cultured in Dulbecco’s modified Eagle’s medium (DMEM) supplemented with antibiotics (100 U/ml penicillin and 100 μg/ml streptomycin) and 10% fetal calf serum at 37° C in a humidified chamber under a 5% CO2 atmosphere. Growth inhibition was evaluated using 3-(4, 5-dimethylthizol-2-yl)-2, 5-diphenyltetrazolium bromide (MTT) assays to measure cell viability. After cells were seeded into a 96-well plate at a density of 2 × 10^4/well and incubated for 24 h, twofold serial dilutions of each peptide in DMEM were added to the wells, and the cells were incubated for an additional 24 h at 37° C. Thereafter, 10 μl of MTT (5 mg/ml) was added to each well, and the plate was incubated for 4 h. The supernatants were then removed, and 50 μl of DMSO was added to each well to dissolve any remaining precipitate. Finally, the absorbance at 570 nm was measured using a microtiter reader.

[5] = tested on: human red blood cells (hRBCs); experiment: Hemolysis; assay type: cell-based; conditions: PBS buffer containing 8% hRBCs, 1 h, 37° C, absorbance 414 nm, triplicate
Protocol: Fresh human red blood cells (hRBCs) from healthy donors were centrifuged at 800 × g and washed with phosphate-buffered saline (PBS) until the supernatant was clear. Twofold serial dilutions of the peptides in PBS were added to a 96-well plate, after which the hRBCs were added to obtain a final concentration of 8% (vol/vol). The samples were then incubated with mild agitation for 1 h at 37° C. The samples were then centrifuged at 800 × g for 10 min, and the absorbance of the supernatant was measured at 414 nm. All the measurements were performed in triplicate, and the percentages of hemolysis were calculated using equation 1: % hemolysis=[(A414 in peptide solution−A414 in PBS)/(A414 in […]−A414 in PBS)]×100 (1)
Where 100% hemolysis was defined as the absorbance measured from hRBCs exposed to 1% Triton X-100 and zero hemolysis was characterized using hRBCs alone in PBS [40].

[6] = tested on: Salmonella typhimurium KCTC 1926; assay type: cell-based; conditions: 10 mM sodium phosphate buffer, 10% LB, 37° C, 24 h, mean of 3 experiments
From the text: as §1, with “Bacillus subtilis KCTC 1998 (LB media), Salmonella typhimurium KCTC 1926 (NB media), and Proteus vulgaris KCTC 2433 (NB media) were obtained from the Korean Collection for Type Cultures (Jeollabuk-do, Korea).” left out
as §2

[7] = tested on: Proteus vulgaris KCTC 2433; assay type: cell-based; conditions: 10 mM sodium phosphate buffer, 10% LB, 37° C, 24 h, mean of 3 experiments
From the text: as §1, with “Bacillus subtilis KCTC 1998 (LB media), Salmonella typhimurium KCTC 1926 (NB media), and Proteus vulgaris KCTC 2433 (NB media) were obtained from the Korean Collection for Type Cultures (Jeollabuk-do, Korea).” left out
as §2

S. aureus ATCC 29213 [8] = assay type: cell-based, Staphylococcus aureus; conditions: 10 mM sodium phosphate buffer, 10% LB, 37° C, 24 h, mean of 3 experiments
From the text: as §1, with “E. coli ATCC 25922 (LB media), P. aeruginosa ATCC 15692 (NB+0.5% NaCl media), Listeria monocytogenes ATCC 3710 (LB media), Staphylococcus epidermidis ATCC 12228 (LB media), and S. aureus ATCC 29213 (TSB media) were obtained from the American Type Culture Collection (Manassas, VA, USA).” left out
as §2

S. aureus ATCC 29213 [9] = experiment: microbe, parasite or virus in culture; conditions: for MIC: Staphylococcus aureus; for Increase of MIC: relative to first passage
Protocol: To determine the MICs of CSP-4, a single colony of S. aureus ATCC 29213 was cultured at 37° C in tryptic soy broth, as well as daptomycin and linezolid, which served as commercial antibiotic positive controls. […] For each agent, the MIC was determined daily for 29 days at pH 5.5 and/or for 8 days at pH 7.4 using cells from wells containing half the MIC (1/2 MIC well). […] All MICs were determined in duplicate.

[10] = after 8 passages at pH 7.4, 10 mM sodium phosphate buffer, 10% tryptic soy broth

CCN1CCN(C(=O)N[C@@H](C(=O)N[C@@H]2C(=O)N3[C@@H]2SC(C)(C)[C@@H]3C(=O)O)c2ccccc2)C(=O)C1=O [piperacidin]
MIC (P. aeruginosa 4007): >800 µM | MIC (P. aeruginosa 3543): >800 µM | MIC (P. aeruginosa 3547): 200 µM (≈ 104 µg/mL) | MIC (P. aeruginosa 3904): >800 µM

FLRFIGSVIHGIGHLVHHIGVAL-NH2 [Clavaspirin]
MIC, E. coli (E. coli ATCC 25922; pH 5.5 (I)): 2 µM | MIC, E. coli (E. coli ATCC 25922; pH 7.4 (II)): 64 µM | MIC, P. aeruginosa (P. aeruginosa ATCC 15692; pH 5.5 (I)): 32 µM | MIC, P. aeruginosa (P. aeruginosa ATCC 15692; pH 7.4 (II)): >64 µM | MIC, L. monocytogenes ([1]; pH 5.5 (I)): 16 µM | MIC, L. monocytogenes ([1]; pH 7.4 (II)): 64 µM | MIC, B. subtilis ([2]; pH 5.5 (I)): 16 µM | MIC, B. subtilis ([2]; pH 7.4 (II)): 64 µM | MIC, S. epidermidis ([3]; pH 5.5 (I)): 4 µM | MIC, S. epidermidis ([3]; pH 7.4 (II)): 32 µM | EC10 (effective concentration in HaCaT cells) [4]: 66 | HC10 (hemolytic activity) [5]: 37 | HC50 (hemolytic activity) [5]: 64 | MIC, S. typhimurium ([6]; pH 5.5 (I)): 32 µM | MIC, S. typhimurium ([6]; pH 7.4 (II)): 64 µM | MIC, P. vulgaris ([7]; pH 5.5 (I)): 8 µM | MIC, P. vulgaris ([7]; pH 7.4 (II)): 64 µM | MIC, S. aureus (S. aureus ATCC 29213 [8]; pH 5.5 (I)): 16 µM | MIC, S. aureus (S. aureus ATCC 29213 [8]; pH 7.4 (II)): 64 µM

CC(=O)NC[C@H]1CN(c2ccc(N3CCOCC3)c(F)c2)C(=O)O1 [linezolid]
MIC (S. aureus ATCC 29213 [9]; ATCC29213, pH 5.5, read-out: MIC at start of resistance induction): 4 µM (≈ 1.35 µg/mL) | MIC (S. aureus ATCC 29213 [9]; ATCC29213, pH 7.4, read-out: MIC at start of resistance induction): 8 µM (≈ 2.7 µg/mL) | Increase of MIC (S. aureus ATCC 29213 [9]; [10]): approximately 200 × | Passages over which resistance was induced (S. aureus ATCC 29213 [9]; pH 5.5): 24 passages | Passages after which resistance was induced (S. aureus ATCC 29213 [9]; pH 7.4): 5 passages

CCCCCCCCCC(=O)N[C@@H](Cc1c[nH]c2ccccc12)C(=O)N[C@H](CC(N)=O)C(=O)N[C@@H](CC(=O)O)C(=O)N[C@@H]1C(=O)NCC(=O)N[C@@H](CCCN)C(=O)N[C@@H](CC(=O)O)C(=O)N[C@H](C)C(=O)N[C@@H](CC(=O)O)C(=O)NCC(=O)N[C@H](CO)C(=O)N[C@@H]([C@H](C)CC(=O)O)C(=O)N[C@@H](CC(=O)c2ccccc2N)C(=O)O[C@@H]1C [daptomycin]
Increase of MIC (S. aureus ATCC 29213 [9]; [10]): approximately 1000 × | Increase of MIC (S. aureus ATCC 29213 [9]; after 29 passages at pH 5.5): over 8000 × | Increase of MIC following prolonged exposure (S. aureus ATCC 29213 [9]; following prolonged exposure): ≤ 8000 fold | MIC at start of resistance induction (S. aureus ATCC 29213 [9]; pH 5.5): 0.25 µM | Passages over which resistance was induced (S. aureus ATCC 29213 [9]; pH 5.5): 24 passages | MIC at start of resistance induction (S. aureus ATCC 29213 [9]; pH 7.4): 4 µM | Passages after which resistance was induced (S. aureus ATCC 29213 [9]; pH 7.4): 5 passages
